Experimental data taken from patent US5332739A, “Pyrimidinedione derivatives and antiarrhythmic agents containing same” (Mitsui Toatsu Chemicals, Incorporated, priority 1990, dated 1994).
Where a name gives a salt, the structure may show the parent alone.

Experiments:
[1] = system: Purkinje fiber of the right ventricular free wall; test: Influence on Myocardial Action Potential Duration Time (APD75); assay type: cell-based, hybrid adult dog; details: Canis lupus familiaris, 20 min, 20 minutes' incubation, 1 Hz, 37° C.; for percent prolongation of action potential duration (APD75) at 1 µg/mL: Dose 1.0 (μg, ml); for percent prolongation of action potential duration (APD75) at 3 µg/mL: Dose 3.0 (μg, ml); for percent prolongation of action potential duration (APD75) at 10 µg/mL: Dose 10.0 (μg, ml)
Procedure: To a hybrid adult dog, 30 mg/kg of pentobarbital was administered through a vein, and after being anesthetized, the heart was removed. Afterward, the right ventricular free wall of the heart was cut and taken out in a Tyrode solution.
The taken right ventricular free wall was fixed in an incubator at 37° C., and a nutritional solution (20 ml of the Tyrode solution) was refluxed.
In this isolated condition, myocardial action potential duration times (APD75) were measured before and after the administration of the respective compounds prepared in the above examples in Table A and d-sotalol as a control medicine, and APD75 (%) was calculated from the measured results in accordance with the formula: […]
A: APD75 before administration
B: APD75 after administration
Here, APD75 was measured as follows: A field stimulation of 1 Hz was given to the right ventricular free wall, and any variation of an action potential was depicted on an oscilloscope via a glass microelectrode (10 to 20 M.OMEGA.) thrust into a Purkinje fiber of the free wall and via an amplifier. Afterward, a waveform on the oscilloscope was analyzed by the use of a computer, and the time of from a point of the action potential generation to a point of 75% repolarization was measured. This measured time was regarded as the myocardial action potential duration time (APD75).
The compounds and d-sotalol shown in Table A were separately added to the refluxing nutritional solution (20 ml), and after 20 minutes' incubation, APD75 after the administration was calculated from the variation of the myocardial action potential duration time.
Incidentally, this test was carried out in accordance with a Sato et al's method [H. Sato, K. Hashimoto, Arzneimeittel Forschung, 34 (1), 3a, 376-380 (1984)].

[2] = system: ventricular muscle (right ventricle); test: Influence on Ventricular Muscle Refractory Period (ERP); assay type: in vivo, mongrel adult dog; details: Canis lupus familiaris, iv, anesthetized dog, read-out: ERP (%; extensibility of refractory period); for change in vivo at 0.1 mg/kg: Dose 0.1 mg/kg i.v.; for change in vivo at 0.3 mg/kg: Dose 0.3 mg/kg i.v.; for change in vivo at 1 mg/kg: Dose 1.0 mg/kg i.v.; for change in vivo at 3 mg/kg: Dose 3.0 mg/kg i.v.
Procedure: Refractory periods were measured in the following manner before and after each of the compounds and d-sotalol shown an Table A was separately administered to a vein or a duodenum, and ERP (%; extensibility of refractory period) was calculated from the measured values in accordance with the following formula: […]
W: Refractory period after administration
Y: Refractory period before administration
To a mongrel adult dog, 30 mg/kg of pentobarbital was administered intravenously, and after being anesthetized, a pair of silver-silver chloride electrodes separated by 3 mm was sewn on an opened right ventricule, and electrical stimulation was given at an interval of 400 msec at a duration time of 4 msec under a current twice as much as the threshold. Afterward, a small amount of alcohol was injected into a sinus artery in order to extinguish a pacemaker activity, and the ventricular refractory period (ERP) was measured under ventricule pacing.
That is, 1 train comprised 10 stimulations, and an interval between two of the trains was usually 400 msec. At the time of the refractory period measurement, however, the above interval was shortened every 10 smec, and the interval between the trains at the time when reaction to the first stimulation of the train disappeared was regarded as the refractory period.
In this case, the electrical stimulation was fed in accordance with a program by a heart stimulation device (Diamedical Co., Ltd.; DHM-226-3).

Row | Compound | percent prolongation of action potential duration (APD75) at 1 µg/mL [1] [%] | percent prolongation of action potential duration (APD75) at 3 µg/mL [1] [%] | percent prolongation of action potential duration (APD75) at 10 µg/mL [1] [%] | change in vivo at 0.1 mg/kg [2] [%] | change in vivo at 0.3 mg/kg [2] [%] | change in vivo at 1 mg/kg [2] [%] | change in vivo at 3 mg/kg [2] [%]
1 | Cn1c(N2CCN(CCCOc3ccc(C(=O)c4ccccc4)cc3F)CC2)cc(=O)n(C)c1=O [Compound 58] | 19 | 29 | 36 | – | – | – | –
2 | Cn1c(N2CCN(CCCOc3ccc(F)cc3)CC2)cc(=O)n(C)c1=O [Compound 1, 1,3-dimethyl-6-[4-(3-[4-fluorophenoxy]propyl)piperazin-1-yl]-2,4(1H,3H)-pyrimidinedione.hydrochloride] | 17 | 22 | 30 | 6 | 12 | 15.8 | 24.3
3 | CSc1ccc(OCCCN2CCN(c3cc(=O)n(C)c(=O)n3C)CC2)c(NS(C)(=O)=O)c1 [Compound 113, 1,3-dimethyl-6-[4-(3-[4-methylmercapto-2-methanesulfonamidophenoxy]propyl)piperazin-1-yl]-2,4(1H,3H)-pyrimidinedione.hydrochloride] | 2 | 17 | 26 | 0 | 0 | – | 17.6
4 | CSc1ccc(OCCCN2CCN(c3cc(=O)n(C)c(=O)n3C)CC2)cc1 [Compound 98, 1,3-dimethyl-6-[4-(3-[4-methylthiophenoxy]propyl)piperazin-1-yl]-2,4 (1H,3H)-pyrimidinedione.hydrochloride] | 4 | 13 | 25 | 0 | 0 | 7.7 | 15.4
5 | Cn1c(NCCN(CCO)CCCc2ccccc2)cc(=O)n(C)c1=O [Compound 120, 1,3-dimethyl-6-[2-(N-[2-hydroxyethyl]-3-phenylpropylamino)ethylamino]-2,4(1H,3H)-pyrimidinedione.oxalate] | 6 | 14 | 26 | – | – | – | –
6 | Cn1c(N2CCN(CCCc3ccccc3)CC2)cc(=O)n(C)c1=O [Compound 89, 1,3-dimethyl-6-[4-(3-phenylpropyl)piperazin-1-yl]-2,4(1H,3H)-pyrimidinedione.hydrochloride] | 15 | 26 | 31 | 0 | 5.7 | 9.7 | 14
7 | Cn1c(N2CCN(CCCOc3ccc(Cl)cc3Cl)CC2)cc(=O)n(C)c1=O [Compound 43] | – | 13 | 18 | 0 | 0 | 7.7 | 19.3
8 | Cn1c(N2CCN(CCCOc3ccccc3C#N)CC2)cc(=O)n(C)c1=O [Compound 16] | 6 | 14 | 23 | 0 | 0 | 6.7 | 10
9 | Cn1c(N2CCN(CCCOc3cccc(C#N)c3)CC2)cc(=O)n(C)c1=O [Compound 12] | 4 | 11 | 28 | 0 | 2.1 | 4.3 | 17
